Measured values as given in ChEMBL document CHEMBL1208699, “BACE-1 hydroxyethylamine inhibitors using novel edge-to-face interaction with Arg-296” (Bioorg Med Chem Lett, 2010).

Assays:
Type in all cases: ADME, organism-based
Parameters in all cases: dose 1 mg/kg, route intravenous
[1] = Half life in rat at 1 mg/kg, iv; conditions: in vivo
[2] = Volume of distribution at steady state in rat at 1 mg/kg, iv; conditions: in vivo, read-out: Vdss
[3] = Blood clearance in rat at 1 mg/kg, iv; conditions: whole blood

## CS(=O)(=O)N(c1ccccc1)c1cc(C(=O)N[C@@H](Cc2ccccc2)[C@H](O)CNCc2cccc(C(F)(F)F)c2)cc(C2CCCC2)c1
[1]
  half-life: 42 min
[2]
  Vd: 9.3 L/kg
[3]
  clearance: 76 mL/min/kg
